# Reference: US10899738B2 (THE REGENTS OF THE UNIVERSITY OF MICHIGAN, priority 2016, dated 2021)
# Target: menin protein (Homo sapiens (Human), UniProt O00255)
# Experiment: biochemical
# Format: binding
# Conditions: FP competitive binding; menin protein 4 nM, FAM-MM2 probe 2 nM
# In short: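 Competitive fluorescence polarization assay using FAM-labelled MLL1 peptide probe FAM-MM2 (2 nM final) preincubated with menin (4 nM final) in PBS with 0.02% bovine γ-globulin, 4% DMSO and 0.01% Triton X-100. Compounds were added and incubated 30 min at room temperature. IC50 came from nonlinear regression of competition curves, with Ki also derived.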
# menin protein, sequence (O00255 whole entry): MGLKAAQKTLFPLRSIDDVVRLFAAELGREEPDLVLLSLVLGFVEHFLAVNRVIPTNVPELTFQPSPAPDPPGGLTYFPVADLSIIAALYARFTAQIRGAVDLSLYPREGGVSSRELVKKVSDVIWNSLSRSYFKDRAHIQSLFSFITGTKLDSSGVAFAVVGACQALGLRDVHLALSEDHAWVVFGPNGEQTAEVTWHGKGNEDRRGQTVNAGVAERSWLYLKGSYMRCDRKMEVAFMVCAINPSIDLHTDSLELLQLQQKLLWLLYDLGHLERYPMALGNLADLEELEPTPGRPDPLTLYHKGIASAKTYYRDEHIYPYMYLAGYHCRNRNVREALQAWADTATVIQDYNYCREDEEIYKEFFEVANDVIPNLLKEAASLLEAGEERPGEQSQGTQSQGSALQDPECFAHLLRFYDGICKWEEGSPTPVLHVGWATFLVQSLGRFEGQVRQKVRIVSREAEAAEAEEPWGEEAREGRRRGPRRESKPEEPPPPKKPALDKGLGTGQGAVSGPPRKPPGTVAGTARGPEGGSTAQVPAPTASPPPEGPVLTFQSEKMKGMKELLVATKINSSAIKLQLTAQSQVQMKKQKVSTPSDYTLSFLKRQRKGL
row,Menin Binding Affinity IC50 (μM),Compound
1,No inhibition,"c1ccc(CN2CC(C3(C4CCCC4)NCCc4ccccc43)C2)cc1 (stereo not drawn) [compound 57, 1-(1-benzylazetidin-3-yl)-1-cyclopentyl-1,2,3,4-tetrahydroisoquinoline]"

# Same assay, conditions: FP competitive binding; menin protein 4 nM, FAM-MM2 probe 2 nM; read-out: Menin Binding Affinity IC50
row,Compound,IC50 [µM]
1,"O=S(=O)(c1ccc(O[C@H]2C[C@@H](N3CCC(C4(C5CCCC5)NCCc5ccccc54)CC3)C2)cc1)C1CC1 (stereo partly drawn) [compound 89, 1-cyclopentyl-1-(1-((1s,3s)-3-(4-(cyclopropylsulfonyl)phenoxy)cyclobutyl)piperidin-4-yl)-1,2,3,4-tetrahydroisoquinoline]",13.1
2,"O=S(=O)(c1ccc(CCN2CCc3cc(C4(C5CCCC5)NCCc5ccccc54)ccc3C2)cc1)C1CC1 (stereo not drawn) [compound 99, 1-cyclopentyl-2′-(4-(cyclopropylsulfonyl)phenethyl)-1,1′,2,2′,3,3′,4,4′-octahydro-1,6′-biisoquinoline]",0.802
3,"CS(=O)(=O)c1ccc(N2CC(CN3CCC(C4(C5CCCC5)C(=O)N(Cc5ccccc5)Cc5ccccc54)CC3)C2)cc1 (stereo not drawn) [compound 25, 2-benzyl-4-cyclopentyl-4-(1-((1-(4-(methylsulfonyl)phenyl)azetidin-3-yl)methyl)piperidin-4-yl)-1,4-dihydroisoquinolin-3(2H)-one]",2.7
4,"CN1COCN([C@H]2CCC[C@@H]2C(C#N)(c2ccccc2)C2CCN(CC3CN(c4ccc(S(=O)(=O)c5ccncc5)cc4)C3)CC2)C1=O (mixture of isomers) [compound 279, rac-2-((1R,2S)-2-(5-methyl-4-oxo-1,3,5-oxadiazinan-3-yl)cyclopentyl)-2-phenyl-2-(1-((1-(4-(pyridin-4-ylsulfonyl)phenyl)azetidin-3-yl)methyl)piperidin-4-yl)acetonitrile]",0.065
5,"N#CC(Cc1ccncc1)(c1ccccc1)C1CCN(CC2CN(c3ccc(S(=O)(=O)c4ccncc4)cc3)C2)CC1 (stereo not drawn) [compound 343, 2-phenyl-3-(pyridin-4-yl)-2-(1-((1-(4-(pyridin-4-ylsulfonyl)phenyl)azetidin-3-yl)methyl)piperidin-4-yl)propanenitrile]",8.8
6,"CC(=O)O[C@@H]1CCC[C@H]1C(C#N)(c1cccc(F)c1)C1CCN(CC2CN(c3ccc(C#N)cc3)C2)CC1 (mixture of isomers) [compound 416, rac-(1R,2S)-2-(cyano(1-((1-(4-cyanophenyl)azetidin-3-yl)methyl)piperidin-4-yl)(3-fluorophenyl)methyl) cyclopentyl acetate]",3.28
7,"CC(C)C(=O)O[C@@H]1CCC[C@H]1C(C#N)(c1ccccc1)C1CCN(CC2CN(c3ccc(S(=O)(=O)c4ccncc4)cc3)C2)CC1 (mixture of isomers) [compound 194, rac-(1R,2S)-2-(cyano(phenyl)(1-((1-(4-(pyridin-4-ylsulfonyl)phenyl)azetidin-3-yl)methyl)piperidin-4-yl)methyl)cyclopentyl isobutyrate]",165
8,"CO[C@@H]1CCC[C@H]1C(C#N)(c1ccccc1)C1CCN(CCCOc2ccc(C#N)cc2)CC1 (mixture of isomers) [compound 175, rac-4-(3-(4-(cyano((1S,2R)-2-methoxycyclopentyl)(phenyl)methyl)piperidin-1-yl)propoxy)benzonitrile]",8.8
9,"COC(=O)N[C@@H]1CCC[C@H]1C(C#N)(c1ccccc1)C1CCN(CC2CN(c3ccc(S(=O)(=O)c4ccc(C(=O)O)cc4)cc3)C2)CC1 (mixture of isomers) [compound 352, rac-4-((4-(3-((4-(cyano((1S,2R)-2-((methoxycarbonyl)amino)cyclopentyl)(phenyl)methyl)piperidin-1-yl)methyl)azetidin-1-yl)phenyl)sulfonyl)benzoic acid]",2.7
10,"CCS(=O)(=O)c1ccc(N2CC(C(=O)N3CCC(C4(C5CCCC5)NCCc5c(F)cccc54)CC3)C2)cc1 (stereo not drawn) [compound 116, (4-(1-cyclopentyl-5-fluoro-1,2,3,4-tetrahydroisoquinolin-1-yl)piperidin-1-yl)(1-(4-(ethylsulfonyl)phenyl)azetidin-3-yl)methanone]",6
11,"CSC[C@@H]1CCC[C@H]1C(C#N)(c1ccccc1)C1CCN(CC2CN(c3ccc(S(=O)(=O)c4ccncc4)cc3)C2)CC1 (mixture of isomers) [compound 260, rac-2-((1R,2R)-2-((methylthio)methyl)cyclopentyl)-2-phenyl-2-(1-((1-(4-(pyridin-4-ylsulfonyl)phenyl)azetidin-3-yl)methyl)piperidin-4-yl)acetonitrile]",17
12,"CS(=O)(=O)c1ccc(N2CC(CN3CCC(C(C#N)(c4ccccc4)[C@@H]4CCC[C@H]4O)CC3)C2)cc1 (mixture of isomers) [compound 179, rac-2-((1S,2R)-2-hydroxycyclopentyl)-2-(1-((1-(4-(methylsulfonyl)phenyl)azetidin-3-yl)methyl)piperidin-4-yl)-2-phenylacetonitrile]",3.8
13,COCC(C1CC1)C(C#N)(c1ccccc1)C1CCN(CCCOc2ccc(C#N)cc2)CC1 (stereo not drawn) [compound 329],19
14,"CS(=O)(=O)c1ccc(N2CC(CN3CCC(C(C#N)(c4ccccc4)C4CCC(=O)C4)CC3)C2)cc1 (stereo not drawn) [compound 169, 2-(1-((1-(4-(methylsulfonyl)phenyl)azetidin-3-yl)methyl)piperidin-4-yl)-2-(3-oxocyclopentyl)-2-phenylacetonitrile]",49.9
15,"CC(=O)O[C@@H]1CCC[C@H]1C(C#N)(c1ccccc1)C1CCN(CC2CN(c3ccc(S(=O)(=O)c4ccncc4)cc3)C2)CC1 (mixture of isomers) [compound 207, rac-(1R,2S)-2-(cyano(phenyl)(1-((1-(4-(pyridin-4-ylsulfonyl)phenyl)azetidin-3-yl)methyl)piperidin-4-yl)methyl)cyclopentyl acetate]",2.8
16,"CN1Cc2ccccc2C(C2CCCC2)(C2CCN(CC3CN(c4ccc(S(C)(=O)=O)cc4)C3)CC2)C1 (stereo not drawn) [compound 64, 4-cyclopentyl-2-methyl-4-(1-((1-(4-(methylsulfonyl)phenyl)azetidin-3-yl)methyl)piperidin-4-yl)-1,2,3,4-tetrahydroisoquinoline]",0.061
17,"COC(=O)N[C@@H]1CCC[C@H]1C(C#N)(c1ccccc1)C1CCN(CC2CN(c3ccc(S(=O)(=O)c4cnn(C)c4)cc3)C2)CC1 (mixture of isomers) [Cpd. No. 350, methyl (rac-(1R,2S)-2-(cyano(1-((1-(4-((1-methyl-1H-pyrazol-4-yl)sulfonyl)phenyl)azetidin-3-yl)methyl)piperidin-4-yl)(phenyl)methyl)cyclopentyl)carbamate]",1.2
18,"CCS(=O)(=O)c1ccc(N2CC(CN3CCC(C4(CC(C)(C)C)NCCc5ccccc54)CC3)C2)cc1 (stereo not drawn) [compound 248, 1-(1-((1-(4-(ethylsulfonyl)phenyl)azetidin-3-yl)methyl)piperidin-4-yl)-1-neopentyl-1,2,3,4-tetrahydroisoquinoline]",0.8
19,"N#Cc1ccc(NCCCN2CCC(C3(C4CCCC4)NCCc4ccccc43)CC2)cc1 (stereo not drawn) [compound 58, 4-((3-(4-(1-cyclopentyl-1,2,3,4-tetrahydroisoquinolin-1-yl)piperidin-1-yl)propyl)amino)benzonitrile]",0.241
20,"CC(=O)N[C@@H]1CCC[C@H]1C(C#N)(c1ccccc1)C1CCN(CC2CN(c3ccc(C#N)cc3)C2)CC1 (mixture of isomers) [compound 383, rac-N-((1R,2S)-2-(cyano(1-((1-(4-cyanophenyl)azetidin-3-yl)methyl)piperidin-4-yl)(phenyl)methyl)cyclopentyl)acetamide]",2.5
